Test results as given in paper PMC7033278, “A Nonpeptide Oxytocin Receptor Agonist for a Durable Relief of Inflammatory Pain” (Scientific Reports, 2020).
Entries after “also recorded” stand apart in the source; their conditions may differ.

Columns and labels:
[1] = stability in PBS solution over 24 h; type: physicochemical; settings: PBS pH 7.4, room temperature, after 24 h
24 off-target GPCRs = assay: Eurofins SafetyScreen functional panel, GPCR agonist and antagonist profile; type: cell-based; settings: 5 μM, 24 GPCRs
Method: (§1) In vitro profiling of LIT-001 was performed by Eurofins as described in the Eurofins SafetyScreen-Functional panel, 2018[31]. The hepatotoxicity of LIT-001 was studied with cryo-preserved mouse hepatocytes. After unfreezing (optiTHAW and optiINCUBATE media, Xenotech) and cell viability control, cells (2 × 10^6 cells/ml) were dispatched in 96 well microtiterplates. LIT-001 was added to reach a concentration 1 μM in the presence of 1 × 10^6 cells/mL in a volume of 100 μl/well. The incubation was stopped at 4, 20, 40, 80 and 120 min in adding 100 μl of acetonitrile at 0 °C. A positive control was treated in the same conditions. All samples were analyzed by UHPLC coupled to a mass spectrometer (Shimadzu LC-MS 8030).

[2] = target: T1, ionotropic TRPV1 receptor (Homo sapiens, UniProt Q8NER1); assay: Eurofins functional profiling, TRPV1 agonist/antagonist; type: cell-based; settings: 5 μM
T1 construct: Eurofins (contract assay)
Method: as §1

dopamine transporter = target: T2, dopamine transporter (Rattus norvegicus, UniProt P23977); assay: uptake inhibition, rat brain synaptosomes; type: biochemical; settings: 5 μM
T2 construct: transporters from rat brain synaptosomes; tissue Eurofins (contract assay); host or cells: rat brain synaptosomes
Method: as §1

[3] = target: T3, noradrenaline transporter (Rattus norvegicus, UniProt Q63380); assay: uptake inhibition, rat brain synaptosomes; type: biochemical; settings: 5 μM
T3 construct: transporters from rat brain synaptosomes; tissue Eurofins (contract assay); host or cells: rat brain synaptosomes
Method: as §1

serotonin transporter = target: T4, serotonin transporter (Rattus norvegicus, UniProt P31652); assay: uptake inhibition, rat brain synaptosomes; type: biochemical; settings: 5 μM
T4 construct: transporters from rat brain synaptosomes; tissue Eurofins (contract assay); host or cells: rat brain synaptosomes
Method: as §1

[4] = target: T5, GABAA (alpha1/beta2/gamma2) (Homo sapiens, UniProt P14867+P18507+P47870); assay: ion channel blockade panel; type: cell-based; settings: 5 μM
T5 construct: Eurofins (contract assay)
Method: as §1

Vav1.5 sodium channel = target: T6, Vav1.5 sodium channel (Homo sapiens, UniProt Q14524); assay: ion channel blockade panel; type: cell-based; settings: 5 μM
T6 construct: Eurofins (contract assay)
Method: as §1

[5] = target: T7, human hERG potassium channel (Homo sapiens, UniProt Q12809); assay: ion channel blockade panel; type: cell-based; settings: 5 μM
T7 construct: Eurofins (contract assay)
Method: as §1

nAChR (alpha4/beta2) = target: T8, nAChR (alpha4/beta2) (Homo sapiens, UniProt P17787+P43681); assay: ion channel blockade panel; type: cell-based; settings: 5 μM
T8 construct: Eurofins (contract assay)
Method: as §1

[6] = tested on: CFA-induced inflammatory pain model; assay: CFA-induced edema size (hindpaw diameter); type: in vivo; settings: rat, i.p. LIT-001 10 mg/kg at D1 after CFA
Method: (§2) LIT-001 was prepared as described in Frantz et al.[20]. For in vivo biological assays, it was dissolved in carboxymethyl cellulose (CMC, 1%) - NaCl (0.9%) and administered at the dose of 10 mg/kg. LIT-001 or vehicle were injected intraperitoneally (i.p.), in a volume of 10 ml/kg[20], 24 h after the induction of the CFA-induced painful inflammatory sensitization. To confirm the implication of the OTR we injected (i.p.) also L-368,899 (Sigma, St. Louis, MO) (1 mg/kg), an OTR antagonist, in combination with LIT-001 in another group of rats[11].
(§3) Male Wistar rats (300 g; JANVIER LABS, Le Genest St. Isle, France) were used for this study. They were housed by groups of 3 or 4 under standard conditions (room temperature, 22 °C; 12/12 h light/dark cycle) with ad libitum access to food and water and behavioral enrichment. All animals were manipulated and habituated to the tests and to the room for at least 2 weeks. All behavioral tests were done during the light period (i.e., between 7:00 and 19:00). All the procedures were performed in accordance with European committee council Direction, authorization from French Department of Agriculture and from the regional ethic committee.
In order to induce a peripheral inflammation, 100 μl of complete Freund adjuvant (CFA; Sigma, St. Louis, MO), was injected in the right hindpaw of the rat. […]

[7] = tested on: CFA-induced thermal heat hyperalgesia; assay: thermal heat sensitivity, Plantar test (Hargreaves), CFA model; type: in vivo; settings: rat
Method: as §2, §3
To test the animal heat sensitivity, we used the Plantar test with Hargreaves method (Ugo Basile, Comerio, Italy) to compare the response of each hindpaw[33] when we tested healthy animals (unilateral intraplantar NaCl injection) and animals having received unilateral intraplantar CFA (Freund’s Complete Adjuvant) injection. The habituated rat is placed in a small box and we wait until the animal is calmed then we exposed the hindpaw to a radiant heat, the latency time of paw withdrawal was measured.
In order to induce a peripheral inflammation, 100 μl of complete Freund adjuvant (CFA; Sigma, St. Louis, MO), was injected in the right hindpaw of the rat. All CFA injections were performed under light isoflurane anesthesia (3%).

[8] = tested on: V2 vasopressin receptor (V2R); parameters: method as in PMID 30199637; settings: cited from earlier work
[9] = i.p., D1 after CFA, measured 1 hour after injection

T1 sequence (Q8NER1 whole entry): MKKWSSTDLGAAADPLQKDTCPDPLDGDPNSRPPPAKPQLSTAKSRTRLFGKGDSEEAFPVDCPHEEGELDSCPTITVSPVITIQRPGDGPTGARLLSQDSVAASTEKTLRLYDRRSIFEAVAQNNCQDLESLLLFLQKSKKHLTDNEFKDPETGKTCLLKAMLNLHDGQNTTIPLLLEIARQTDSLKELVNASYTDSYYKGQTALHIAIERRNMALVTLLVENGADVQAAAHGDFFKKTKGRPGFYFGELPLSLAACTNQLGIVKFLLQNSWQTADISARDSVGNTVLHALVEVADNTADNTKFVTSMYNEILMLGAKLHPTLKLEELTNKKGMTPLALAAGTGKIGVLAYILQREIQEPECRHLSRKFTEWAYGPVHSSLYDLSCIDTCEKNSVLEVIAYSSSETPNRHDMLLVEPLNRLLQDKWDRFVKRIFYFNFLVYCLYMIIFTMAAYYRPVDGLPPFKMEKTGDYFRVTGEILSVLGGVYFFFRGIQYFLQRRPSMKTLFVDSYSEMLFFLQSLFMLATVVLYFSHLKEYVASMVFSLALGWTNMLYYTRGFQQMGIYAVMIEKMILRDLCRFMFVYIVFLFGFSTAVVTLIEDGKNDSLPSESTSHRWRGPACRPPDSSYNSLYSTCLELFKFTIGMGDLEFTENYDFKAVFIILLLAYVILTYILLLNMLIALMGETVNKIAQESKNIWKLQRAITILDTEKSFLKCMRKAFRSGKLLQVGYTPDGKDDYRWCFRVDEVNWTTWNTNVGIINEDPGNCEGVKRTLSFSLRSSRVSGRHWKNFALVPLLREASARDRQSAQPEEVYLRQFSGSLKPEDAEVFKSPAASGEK
T2 sequence (P23977 whole entry): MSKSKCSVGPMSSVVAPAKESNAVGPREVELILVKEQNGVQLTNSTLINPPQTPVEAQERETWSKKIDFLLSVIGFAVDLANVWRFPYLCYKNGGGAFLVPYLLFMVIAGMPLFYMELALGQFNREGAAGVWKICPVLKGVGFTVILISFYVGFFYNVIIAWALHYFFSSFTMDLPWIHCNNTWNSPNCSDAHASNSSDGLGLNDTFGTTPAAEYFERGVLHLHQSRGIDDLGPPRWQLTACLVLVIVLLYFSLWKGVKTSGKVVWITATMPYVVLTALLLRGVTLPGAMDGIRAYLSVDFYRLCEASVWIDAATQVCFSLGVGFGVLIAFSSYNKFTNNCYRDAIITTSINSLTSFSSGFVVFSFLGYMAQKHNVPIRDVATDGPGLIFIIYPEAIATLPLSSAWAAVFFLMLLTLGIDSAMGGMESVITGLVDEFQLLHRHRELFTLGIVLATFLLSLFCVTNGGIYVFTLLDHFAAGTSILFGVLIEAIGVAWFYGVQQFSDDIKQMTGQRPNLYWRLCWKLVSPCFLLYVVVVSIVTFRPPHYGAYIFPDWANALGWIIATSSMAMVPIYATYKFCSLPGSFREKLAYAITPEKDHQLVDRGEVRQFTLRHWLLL
T6 sequence (Q14524 whole entry): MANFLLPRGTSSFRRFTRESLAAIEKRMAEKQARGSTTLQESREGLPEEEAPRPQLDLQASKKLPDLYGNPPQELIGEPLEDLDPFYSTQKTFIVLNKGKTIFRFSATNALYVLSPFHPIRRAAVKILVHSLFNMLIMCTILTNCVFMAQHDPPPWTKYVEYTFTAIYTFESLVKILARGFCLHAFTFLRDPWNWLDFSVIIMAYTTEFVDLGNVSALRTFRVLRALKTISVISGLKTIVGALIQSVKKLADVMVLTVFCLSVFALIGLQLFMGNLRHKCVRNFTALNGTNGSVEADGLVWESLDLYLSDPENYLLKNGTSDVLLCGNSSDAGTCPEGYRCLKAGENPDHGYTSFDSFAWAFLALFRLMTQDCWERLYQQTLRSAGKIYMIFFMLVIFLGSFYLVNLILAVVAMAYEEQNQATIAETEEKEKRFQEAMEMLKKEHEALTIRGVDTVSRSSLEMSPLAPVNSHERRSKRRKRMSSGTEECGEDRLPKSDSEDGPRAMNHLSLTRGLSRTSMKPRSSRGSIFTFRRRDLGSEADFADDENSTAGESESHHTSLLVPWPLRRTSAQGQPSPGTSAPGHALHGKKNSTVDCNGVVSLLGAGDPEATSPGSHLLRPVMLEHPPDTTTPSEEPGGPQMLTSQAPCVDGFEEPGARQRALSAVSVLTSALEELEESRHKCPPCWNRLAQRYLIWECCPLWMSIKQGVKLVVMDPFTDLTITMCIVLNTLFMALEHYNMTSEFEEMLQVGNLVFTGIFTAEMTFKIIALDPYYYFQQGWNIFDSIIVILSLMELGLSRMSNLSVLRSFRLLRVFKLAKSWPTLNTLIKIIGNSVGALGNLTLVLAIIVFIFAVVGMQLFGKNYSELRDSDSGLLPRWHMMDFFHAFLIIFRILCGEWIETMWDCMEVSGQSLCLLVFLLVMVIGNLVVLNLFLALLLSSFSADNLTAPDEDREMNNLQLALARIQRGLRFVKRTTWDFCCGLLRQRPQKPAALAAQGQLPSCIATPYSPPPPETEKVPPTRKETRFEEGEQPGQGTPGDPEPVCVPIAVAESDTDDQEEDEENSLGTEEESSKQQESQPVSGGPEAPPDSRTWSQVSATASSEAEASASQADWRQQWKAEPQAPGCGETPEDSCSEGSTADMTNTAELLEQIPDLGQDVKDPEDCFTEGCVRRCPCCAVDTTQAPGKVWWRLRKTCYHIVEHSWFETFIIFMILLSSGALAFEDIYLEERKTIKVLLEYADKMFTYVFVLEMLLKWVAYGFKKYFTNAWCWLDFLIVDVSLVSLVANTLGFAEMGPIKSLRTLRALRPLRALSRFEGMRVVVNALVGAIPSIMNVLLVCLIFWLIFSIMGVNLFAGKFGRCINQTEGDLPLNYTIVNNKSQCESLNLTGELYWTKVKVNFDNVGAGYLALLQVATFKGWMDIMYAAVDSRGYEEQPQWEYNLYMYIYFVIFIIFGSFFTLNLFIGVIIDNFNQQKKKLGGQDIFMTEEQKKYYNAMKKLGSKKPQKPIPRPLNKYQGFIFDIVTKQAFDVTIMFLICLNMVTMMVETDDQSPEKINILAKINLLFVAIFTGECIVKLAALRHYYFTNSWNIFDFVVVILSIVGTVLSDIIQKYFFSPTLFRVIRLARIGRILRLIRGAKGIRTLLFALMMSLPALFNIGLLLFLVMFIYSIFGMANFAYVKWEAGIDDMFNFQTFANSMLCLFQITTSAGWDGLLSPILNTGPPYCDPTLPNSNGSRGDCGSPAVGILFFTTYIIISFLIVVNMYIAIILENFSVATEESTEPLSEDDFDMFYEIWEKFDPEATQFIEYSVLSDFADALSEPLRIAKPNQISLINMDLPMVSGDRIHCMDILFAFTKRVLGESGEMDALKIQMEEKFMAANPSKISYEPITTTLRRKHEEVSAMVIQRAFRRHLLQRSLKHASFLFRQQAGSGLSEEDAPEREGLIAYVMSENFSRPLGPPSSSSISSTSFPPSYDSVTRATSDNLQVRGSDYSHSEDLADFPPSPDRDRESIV
T8 sequence (P43681 29-627 limits assumed): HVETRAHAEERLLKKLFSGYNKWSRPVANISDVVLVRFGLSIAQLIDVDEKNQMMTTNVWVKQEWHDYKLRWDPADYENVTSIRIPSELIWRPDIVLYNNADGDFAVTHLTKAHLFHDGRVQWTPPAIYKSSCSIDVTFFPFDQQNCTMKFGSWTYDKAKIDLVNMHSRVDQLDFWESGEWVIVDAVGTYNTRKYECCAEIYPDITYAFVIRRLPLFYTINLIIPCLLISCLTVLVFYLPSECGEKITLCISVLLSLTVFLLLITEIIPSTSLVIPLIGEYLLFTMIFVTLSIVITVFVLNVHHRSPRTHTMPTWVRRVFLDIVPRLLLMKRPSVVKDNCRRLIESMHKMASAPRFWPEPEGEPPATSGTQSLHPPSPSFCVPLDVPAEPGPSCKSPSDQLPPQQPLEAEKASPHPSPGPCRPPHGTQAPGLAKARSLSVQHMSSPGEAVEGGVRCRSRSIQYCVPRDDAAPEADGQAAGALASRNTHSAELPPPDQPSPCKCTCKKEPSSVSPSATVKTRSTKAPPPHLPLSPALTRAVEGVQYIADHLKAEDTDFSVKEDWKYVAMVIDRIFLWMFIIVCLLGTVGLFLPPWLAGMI
T8 sequence (P17787 26-502): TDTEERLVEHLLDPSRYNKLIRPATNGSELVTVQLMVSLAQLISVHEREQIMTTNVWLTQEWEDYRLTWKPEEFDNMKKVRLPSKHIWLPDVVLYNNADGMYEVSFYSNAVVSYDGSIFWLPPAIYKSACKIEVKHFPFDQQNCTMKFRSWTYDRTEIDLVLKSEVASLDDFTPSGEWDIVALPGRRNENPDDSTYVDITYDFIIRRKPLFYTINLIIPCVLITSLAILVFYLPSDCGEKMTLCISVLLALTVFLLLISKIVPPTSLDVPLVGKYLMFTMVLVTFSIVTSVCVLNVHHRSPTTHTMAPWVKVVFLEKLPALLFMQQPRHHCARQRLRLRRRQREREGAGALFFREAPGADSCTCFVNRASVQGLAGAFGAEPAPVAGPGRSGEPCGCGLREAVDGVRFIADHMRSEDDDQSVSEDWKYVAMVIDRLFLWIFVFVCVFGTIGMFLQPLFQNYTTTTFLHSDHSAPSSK

SMILES: Cc1cc(C(=O)N2Cc3cnn(C)c3Nc3ccccc32)ccc1CNC(=O)N1CCC[C@H]1C(=S)N(C)C [LIT-001]
- degradation in PBS solution [1]: No degradation
- agonist or antagonist activity at GPCRs (24 off-target GPCRs): No significant agonist or antagonist
- agonist or antagonist activity at TRPV1 receptor [2]: No significant agonist or antagonist; also recorded: neither LIT-001 nor the OT antagonist L-368,699 displayed any significant agonist or antagonist activity
- dopamine uptake blockade (dopamine transporter): no significant uptake blockade
- noradrenaline uptake blockade [3]: no significant uptake blockade
- serotonin uptake blockade (serotonin transporter): no significant uptake blockade
- GABAA (alpha1/beta2/gamma2) channel blockade [4]: no significant blockade activity
- Vav1.5 sodium channel blockade (Vav1.5 sodium channel): no significant blockade activity
- hERG potassium channel blockade [5]: no significant blockade activity
- nAChR (alpha4/beta2) channel blockade (nAChR (alpha4/beta2)): no significant blockade activity
- CFA-induced edema size [6]: 9.49 ± 0.23 mm
- thermal heat latency, NaCl-injected hindpaw (control animals) ([7]; 10 mg/kg i.p.): 8.14 ± 0.48 s
- thermal heat latency, hindpaw contralateral to CFA (cCFA) ([7]; 10 mg/kg i.p.): 11 ± 0.53 s
- relative-to-baseline AUC, thermal heat latency, CFA-injected hindpaw ([7]; i.p. LIT-001 10 mg/kg at D1 after CFA): 135 ± 9%
- thermal heat withdrawal latency, CFA-injected hindpaw ([7]; i.p. LIT-001 10 mg/kg at D1 after CFA, 3 h post i.p.): 5.83 ± 0.65 s
- dose at which analgesic effect reaches a plateau, thermal heat hypersensitivity [7, 9]: 10 mg/kg
- dose of first analgesic action, thermal heat hypersensitivity [7, 9]: 5 mg/kg
- V2R agonism in functional assays [8]: potent V2R agonist
